Assay: gradient 5% acetonitrile 3 min, to 50% in 2 min, to 85% in 15 min, held 3 min, 100 µL/min
Conditions: column: Zorbax Extend-C18 2.1 x 50 mm; eluents: water / acetonitrile, 0.1% formic acid
Procedure, shortened: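 Standards, all pure, were combined into mixtures of ~100 molecules and run at 100 μL/min on a Zorbax Extend-C18 column (2.1 × 50 mm, 1.8 μm) with water and acetonitrile, each containing 0.1% formic acid. A coupled quadrupole time-of-flight mass spectrometer operated in positive and negative ionization mode. Retention time values come from computationally picked adduct peaks, each inspected manually.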

Structure (SMILES)	RP-LC retention time
Clc1ccc(-c2nnc(-c3cccnc3N3CCC4(CC3)OCCO4)o2)cc1	1010 s
COc1cc(CNCCc2c[nH]c3ccccc23)ccc1OCc1ccc2c(c1)n(C)c(=O)n2C	670 s
Cc1noc(C2(NC(=O)c3ccc4c(c3)OCO4)CCCCC2)n1	758 s
CCN1C(=O)CCc2cc(NC(=O)Cc3ccc(OC)c(Cl)c3)ccc21	798 s
CCN(CC)CCNC(=O)CSc1cc(=O)n(C)c2cc(Cl)ccc12	622 s
COCCn1cc2c3c(cccc31)CN(C(=O)Nc1ccc(OC)cc1OC)CC2	883 s
O=c1c2nc(-c3ccc(F)cc3)cn2ccn1-c1ccc(F)cc1	795 s
COc1cc(C)c(Sc2cnc(NC(=O)c3ccc(CNC(C)C(C)(C)C)cc3)s2)cc1C(=O)N1CCN(C(C)=O)CC1 (stereo unspecified)	762 s
Cc1cnc(C(=O)N2CCC(c3noc(-c4ccncc4)n3)C2)cn1 (stereo unspecified)	645 s
CN1CCN(c2ccc(-c3ccc(NC(=O)Nc4cccc(Cl)c4)cc3)nn2)CC1	588 s
CCc1nc2cc(N3CCC(C(=O)NCc4cccs4)CC3)cnc2nc1CC	816 s
Clc1ccc(-c2noc(CN3CCOCC3)n2)cc1	775 s
COc1ncc(C(=O)NCCc2ccc(Cl)cc2)cn1	788 s
O=C(Nc1nccs1)c1cc(N2C(=O)C3C4CCC(C4)C3C2=O)ccc1Cl (stereo unspecified)	742 s
CCOc1cc(C2c3c(n[nH]c3C)C(=O)N2C)ccc1O (stereo unspecified)	626 s
Cc1ccc(CNC(=O)C2(C)CCN(C(=O)Nc3ccc(C)c(Cl)c3)CC2)cc1	972 s
CCc1oc2cc(S(=O)(=O)Nc3ccc(S(=O)(=O)Nc4nccs4)cc3)ccc2c1C(=O)c1cc(Br)c(O)c(Br)c1	895 s
CCCCN(C)C(=O)CN1C(=O)CCCc2cc(S(=O)(=O)N3CCC(C)CC3)ccc21	971 s
CCn1c(=O)sc2cc(S(=O)(=O)N3CCC(C(=O)NC4CCCCCC4)CC3)ccc21	937 s
Cc1cc2[nH]c(C(=O)Nc3cc(F)c(F)c(F)c3)c(CN(C)C)c2s1	743 s
CC(C)(C)C(=O)Nc1cnc(N2CCCCCC2)nc1	817 s
CCC(=O)N1CCC2(CC1)NCc1ccccc1-n1ccnc12	562 s
COCCNC(=O)C(=O)Nc1ccc(Br)cc1	795 s
CC(C)NC(=O)N1CCCC(c2cccc(C(=O)NCCCN3CCOCC3)c2)C1 (stereo unspecified)	598 s
COc1ccc(N2CC(c3noc(-c4cccc(OC)c4)n3)CC2=O)cc1 (stereo unspecified)	922 s
CCOC(=O)c1c(C)[nH]c2cc(Br)c(O)cc12	768 s

Structure (SMILES)	RP-LC retention time
COCC(=O)NC1CCC12CCN(S(=O)(=O)c1cn(C)cn1)CC2 (stereo unspecified)	623 s
CCCCNC(=O)c1cnn(-c2ccc(-c3nc(C)no3)cn2)c1C	853 s
Cc1nc(C2(C)CCN(C(=O)CCc3cc(Cl)no3)CC2)no1	750 s
COc1ccc(-c2ccnc3cc(C(=O)Nc4ccc5c(c4)OCO5)nn23)cc1OC	848 s
O=C(Nc1cccc(Cl)c1)C1CCN(S(=O)(=O)c2cc(-c3noc(C4CC4)n3)cs2)CC1	1100 s
COc1ccc(Nc2c(-c3ccc(OC)cc3)nc3nc(C)cc(C)n23)cc1	711 s
COc1ccc(NC(=O)c2cn3c(n2)COCC3)cc1Cl	703 s
Cc1cccc(NC(=O)C23CCC=C2N(C2CCCC2)C(=O)CC3)c1 (stereo unspecified)	952 s
CN(CC(=O)O)c1nc2c(F)cccc2s1	689 s
COc1ccc(OC)c(NS(=O)(=O)c2cc(-c3cc(C(F)(F)F)on3)sc2C)c1	1130 s
COc1ccc2c(c1)C1(CCN(S(=O)(=O)c3ccc(NC(C)=O)cc3)C1)C(=O)N2 (stereo unspecified)	686 s
NC(=O)c1nnn(Cc2ccccc2F)c1N	596 s
CCNC(=O)N1CCc2c(c(-c3nc(-c4ccc(F)cc4)no3)nn2C)C1	788 s
COc1ccc(NC(=O)N2C[C@H]3C[C@H](C2)[C@H]2CCCC(=O)N2C3)cc1OC	612 s
COc1ccc(OC)c(-c2nnc(NC(=O)CSc3ccc(Cl)cc3)s2)c1	947 s
CCc1nnc(-c2ccc3ccn(CC(=O)N4CCN(c5ccc(OC)cc5)CC4)c3c2)o1	784 s
Cc1csc(NC(=O)c2sc3nc(-c4cccc([N+](=O)[O-])c4)cn3c2C)n1	800 s
Cc1cccc2nnc(N3CCN(C(=O)c4cccc(Br)c4)CC3)n12	683 s
Cc1ccc(N2CC(NC(=O)Nc3nc(C)cs3)CC2=O)cc1 (stereo unspecified)	660 s
CCc1noc(NC(C)=O)c1-c1ccc(C)c(S(=O)(=O)N2CCCC2)c1	801 s
COc1ccc(-c2noc(-c3nnn(Cc4nc(-c5ccccc5OC)oc4C)c3C)n2)cc1OC	1000 s
Cc1cc(C)cc(C(=O)OC2C[C@H]3CC[C@@H](C2)N3C)c1 (stereo partly specified)	729 s
Cc1noc(-c2nn(C)c3c2CN(C(=O)NCc2ccc(F)cc2)CC3)n1	699 s
Cc1ccccc1-c1nc(-c2ccc3c(c2)oc(=O)n3C(C)C)no1	1270 s
Cc1ccc(CNC(=O)C2CCCCC(=O)N2)o1 (stereo unspecified)	636 s

Continued, values first:

RP-LC retention time	Structure (SMILES)
1250 s	CC(C)n1c(=O)c2ccccc2n(Cc2nc(-c3cccc(Br)c3)no2)c1=O
641 s	COc1ccc(F)cc1S(=O)(=O)NC1CCc2nnc(C3CC3)n2CC1 (stereo unspecified)
1230 s	c1ccc(-c2nc3cc(-c4noc(C5CC5)n4)ccc3o2)cc1
591 s	CC(C)N1CCN(c2ncc(C(=O)Nc3ccccc3)c(N)n2)CC1
754 s	CCOC(=O)c1nc(NCc2cccc(OC)c2)c2ccccc2n1
700 s	COc1ccc(-c2nc3ncccn3c2Nc2ccccc2)cc1
537 s	CN(C)C[C@@H]1CN(Cc2ccccc2)C[C@H]1NS(=O)(=O)c1cccnc1
1360 s	CN(C)c1ccc(-c2nnc3sc(-c4ccc5ccccc5n4)nn23)cc1
678 s	Cc1ccn2cc(-c3ccc(NC(=O)c4cccc(Cl)c4)cc3)nc2n1
788 s	CC(C)Cn1cc(CCNC(=O)c2c(F)cccc2F)c2cccnc21
1200 s	CCCCc1ccc(NC(=O)Cn2nc3cc(C)nc(-c4ccc(Cl)cc4)n3c2=O)cc1
1030 s	CCOc1ccc(S(=O)(=O)N2CCC(C(=O)Nc3ccc(F)c(Cl)c3)CC2)cc1
966 s	Fc1ccc(OCc2nn3c(CSc4ccccc4)nnc3s2)cc1
655 s	CCCN1C(=O)C(CC(=O)N(C)C)Sc2ncccc21 (stereo unspecified)
823 s	Cc1nn2c(N3CCN(c4ccccn4)CC3)cc(C(C)C)nc2c1-c1ccccc1
748 s	O=C1[C@H]2CN(Cc3ccc(F)cc3)C[C@H]2C(=O)N1CCc1ccccc1
552 s	Cc1nc(C)c(-c2ccc(=O)n(CCNC(=O)Cn3cnc4ccccc43)n2)s1
574 s	COc1ccccc1OCC(=O)NCCN1CCN(c2ccccc2OC)CC1
656 s	CCc1ccc2[nH]c3c(c(=O)c2c1)CN(CC(=O)NCc1ccc(Cl)cc1)CC3
695 s	O=C(Cc1nnc(-c2ccc3ncccc3c2)o1)NCc1ccccc1F

RP-LC retention time	Structure (SMILES)
851 s	Cc1nc(-c2ccc(N3CCN(C(=O)COc4ccccc4)CC3)nc2)sc1C
864 s	CN(c1ccc(F)cc1)S(=O)(=O)N1CCCC(C(=O)N2CCN(c3ncccn3)CC2)C1 (stereo unspecified)
609 s	Cc1cccc(NC(=O)Cn2ncc3c(N4CCN(c5ccccn5)CC4)ncnc32)c1C
897 s	CN(Cc1ccco1)C(=O)CC1CCN(C(=O)c2cc3cc(Cl)ccc3[nH]2)CC1
1060 s	COCCc1noc(C2Cc3ccccc3N2C(=O)Nc2ccc(C)c(C)c2)n1 (stereo unspecified)
633 s	CNc1nc(Nc2ccccc2)nc2ccccc12
580 s	Cc1noc([C@@H]2CN(Cc3ccc(F)cc3F)C[C@H]2CO)n1
785 s	CCCn1nc(CNC(=O)c2cccs2)c2ccccc21
646 s	O=C(CCCn1c(=O)c2cccn2c2ccc(Br)cc21)NCc1ccccn1
676 s	COc1cccc(Cn2c(C)c(CNCc3ccccn3)c(C(=O)O)c2C)c1
694 s	CCCS(=O)(=O)N1CCN(c2ccc(-n3cccn3)nn2)CC1
1150 s	CCc1sc(NC(=O)Cc2ccc(C)cc2)nc1-c1ccccc1
616 s	CCNc1cc(C)nc(N2CCN(C(=O)c3ccccc3)CC2)n1
1100 s	Cc1ccccc1Nc1c(-c2cccc(Br)c2)nc2ccc(Cl)cn12
1000 s	CCCCN(C)C(=O)Cn1c(=O)c2cnc(-c3ccccc3)nc2n(C)c1=O
630 s	CCc1ccc(S(=O)(=O)N2CC(COC)C3(CCNCC3)C2)cc1 (stereo unspecified)
1070 s	CCSc1nc2ccc(NS(=O)(=O)c3ccc(Cl)cc3)cc2s1
678 s	COc1ccccc1NC(=O)NCC(c1cccnc1)c1cn(C)c2ccccc12 (stereo unspecified)
1100 s	COc1cccc(-n2cc(C(=O)OCc3ccco3)c3ccccc3c2=O)c1
614 s	COc1cccc(C(O)CN2CCN(c3cccc(C)c3C)CC2)c1 (stereo unspecified)

Source: the METLIN SMRT retention time set (Domingo-Almenara et al. 2019)
